Source: US8785374B2, “Inhibitors of mammalian tight junction opening” (Alba Therapeutics Corporation, priority 2007, dated 2014)
Non-standard residues stand in square brackets, D forms with d. No end group written: not given here. pGlu = O=C1CC[C@@H](C(=O)O)N1

Tests used:
[1] = test system: CaCo2 monolayers (tight junctions); assay: Inhibition of agonist-induced decrease in trans epithelial electric resistance (TEER) of CaCo2 monolayers; conditions: inhibition of the reduction in TEER induced by SEQ ID NO:70 (FCIGRL); CaCo2 monolayers
Text: (§1) Measurement of the Inhibition of the Decrease in Trans Epithelial Electric Resistance (TEER) and Epithelial Flux of a Fluorescent Marker Lucifer Yellow
(§2) Antagonists of tight junctions can be identified by their ability to prevent or decrease the enhancement of the flux of compounds (e.g. Lucifer Yellow) through the monolayer induced by agonists of tight junctions (e.g., SEQ ID NO: 70). Antagonists of tight junctions can also be identified by their ability to prevent the decrease in TEER induced by agonists of tight junctions (e.g., SEQ ID NO: 70).
(§3) Tight junction antagonists can be identified using the following method:
(§4) Prepare Modified Hank's Balanced Salt Solution (MHBSS) by obtaining IL bottle of HBSS removing 10 ml of HBSS and replacing it with 10 ml HEPES buffer pH 7.0. Adjust pH to 7.4±0.1 using concentrated NaOH (10N).
(§5) Remove Caco-2 cells from incubator, grown on 12-well, […], polycarbonate Transwell® filters (Corning) and record passage number, date cells seeded and age in days.
(§6) Aspirate cell culture medium from both the apical (AP) and basolateral (BL) compartments, replacing with 0.5 ml and 1.5 ml of MHBSS, respectively. Incubate cells at 37° C. for 30 minutes.
Using the MilliCell®-ERS instrument (Millipore), measure and record the transepithelial electrical resistance (TEER) across each filter and record.
(§7) Prepare a stock solution of the Antagonist Pretreatment Solution by dissolving the appropriate amount of antagonist in MHBSS. Vortex or sonicate the solution until it is clear then adjust pH to 7.4±0.1 using 1N NaOH. Preincubate each filter for 30 min with these solutions at 37° C. and 50 RPM.
(§8) Prepare stock solutions of Antagonist Treatment Solution by dissolving appropriate amounts of antagonist and agonist (for example, a peptide agonist such as a peptide having the sequence FCIGRL (SEQ ID NO: 70)) in 7.5 mM Lucifer Yellow solution in MHBSS. Vortex or sonicate the solution until it is clear then adjust pH to 7.4±0.1 using 1N NaOH.
(§9) Aspirate Antagonist Pretreatment Solution from the apical compartment of each filter (n=3 per condition) and replace with 0.5 ml of control and test solutions.
(§10) Place all plates into incubator set at 37° C. (±0.2), 50 RPM (±5) for a total of 180 minutes.
At t=30, 60, 120 and 180 minutes, measure and record the transepithelial electrical resistance (TEER) across each filter using the MilliCell-ERS instrument.
(§11) Cells: Caco-2 cells passage 40-60 grown on Transwell® plates for 21-28 days
(§12) SEQ ID NO: 70 is a 6-mer peptide tight junction agonist having the sequence FCIGRL. See US patent publication US 2005/0059593 A1. In the following tables + indicates attenuation of the effects of the tight junction agonist were observed and − indicates no attenuation of the effects of the tight junction agonist were observed.

[2] = test system: CaCo2 monolayers (tight junctions); assay: Inhibition of agonist-induced Lucifer Yellow flux through CaCo2 monolayers; conditions: inhibition of the increase in Lucifer Yellow permeability induced by SEQ ID NO:70 (FCIGRL); CaCo2 monolayers
Text: as §1, §2, §3, §4, §5, §6, §7, §8, §9, §10
At t=60, 120 and 180 minutes remove 100 μl from each basolateral compartment and place it in a 96-well plate for Lucifer Yellow analysis, replace with 100 μl of HBSS.
Make a Lucifer Yellow standard curve with the following dilutions (7500 μM, 3750 μM, 750 μM, 375 μM, 75 μM, 37.5 μM, 7.5 μM, 3.75 μM, 0.75 μM) and pipette 100 μL of each into a 96-well plate except for the first three standards mentioned above which require a 1:10 dilution prior to transferring to the 96-well plate.
At t=0 make 1:10 dilutions of each starting Antagonist Treatment Solution mentioned above and pipette 100 μL of each into a 96-well plate.
At t=180 make 1:10 dilutions of Antagonist Treatment Solution from the apical compartment of each filter and pipette 100 μL of each into the 96-well plate.
Analyze each 96-well plate in a Tecan Spectra Fluor Plus using Magellan at 485 and 535 nm.
as §11, §12

## Gln-(d)Pro-Gly (Gln-[dP]-Gly) [SEQ ID NO: 11]
[1]
  Prevented TEER Reduction: +
[2]
  Reduced LY Permeability: +

## Glp-Pro-Val ([pGlu]-Pro-Val) [SEQ ID NO: 63]
[1]
  Prevented TEER Reduction: −
[2]
  Reduced LY Permeability: −

## Glu-Pro-Gly (EPG; Tight junction antagonist) [SEQ ID NO: 23]
[1]
  Prevented TEER Reduction: +
[2]
  Reduced LY Permeability: +

## Gln-Ala-Gly (QAG; Tight junction antagonist) [SEQ ID NO: 8]
[1]
  Prevented TEER Reduction: +
[2]
  Reduced LY Permeability: +

## Glp-Pro-Leu ([pGlu]-Pro-Leu) [SEQ ID NO: 61]
[1]
  Prevented TEER Reduction: −
[2]
  Reduced LY Permeability: −

## Ile-Pro-Gly (IPG; Tight junction antagonist) [SEQ ID NO: 31]
[1]
  Prevented TEER Reduction: +
[2]
  Reduced LY Permeability: +

## GVLVQPG [SEQ ID NO: 2]
[1]
  Prevented TEER Reduction: −
[2]
  Reduced LY Permeability: −

## Glp-Pro-Gly ([pGlu]-Pro-Gly) [SEQ ID NO: 35]
[1]
  Prevented TEER Reduction: +
[2]
  Reduced LY Permeability: +

## Glp-Val-Gly ([pGlu]-Val-Gly) [SEQ ID NO: 36]
[1]
  Prevented TEER Reduction: −
[2]
  Reduced LY Permeability: −

## Glp-Gly-Gly ([pGlu]-Gly-Gly) [SEQ ID NO: 48]
[1]
  Prevented TEER Reduction: −
[2]
  Reduced LY Permeability: −

## Gly-Pro-(d)Gln (Gly-Pro-[dQ]) [SEQ ID NO: 15]
[1]
  Prevented TEER Reduction: −
[2]
  Reduced LY Permeability: −

## Glp-Met-Gly ([pGlu]-Met-Gly) [SEQ ID NO: 51]
[1]
  Prevented TEER Reduction: −
[2]
  Reduced LY Permeability: −

## Gln-Pro-Gly (QPG; Tight junction antagonist) [SEQ ID NO: 6]
[1]
  Prevented TEER Reduction: +
[2]
  Reduced LY Permeability: +

## Pro-Pro-Gly (PPG; Tight junction antagonist) [SEQ ID NO: 33]
[1]
  Prevented TEER Reduction: −
[2]
  Reduced LY Permeability: −

## Ser-Pro-Gly (SPG; Tight junction antagonist) [SEQ ID NO: 28]
[1]
  Prevented TEER Reduction: +
[2]
  Reduced LY Permeability: +

## Glp-Ser-Gly ([pGlu]-Ser-Gly) [SEQ ID NO: 38]
[1]
  Prevented TEER Reduction: −
[2]
  Reduced LY Permeability: −
